Test [1] concerns the target T1, CIC-1 ion channel (Rattus norvegicus, UniProt P35524).
T1 construct: from tissue; host or cells: whole soleus muscle of 12-14 week old Wistar rats
T1 sequence (P35524 1-994): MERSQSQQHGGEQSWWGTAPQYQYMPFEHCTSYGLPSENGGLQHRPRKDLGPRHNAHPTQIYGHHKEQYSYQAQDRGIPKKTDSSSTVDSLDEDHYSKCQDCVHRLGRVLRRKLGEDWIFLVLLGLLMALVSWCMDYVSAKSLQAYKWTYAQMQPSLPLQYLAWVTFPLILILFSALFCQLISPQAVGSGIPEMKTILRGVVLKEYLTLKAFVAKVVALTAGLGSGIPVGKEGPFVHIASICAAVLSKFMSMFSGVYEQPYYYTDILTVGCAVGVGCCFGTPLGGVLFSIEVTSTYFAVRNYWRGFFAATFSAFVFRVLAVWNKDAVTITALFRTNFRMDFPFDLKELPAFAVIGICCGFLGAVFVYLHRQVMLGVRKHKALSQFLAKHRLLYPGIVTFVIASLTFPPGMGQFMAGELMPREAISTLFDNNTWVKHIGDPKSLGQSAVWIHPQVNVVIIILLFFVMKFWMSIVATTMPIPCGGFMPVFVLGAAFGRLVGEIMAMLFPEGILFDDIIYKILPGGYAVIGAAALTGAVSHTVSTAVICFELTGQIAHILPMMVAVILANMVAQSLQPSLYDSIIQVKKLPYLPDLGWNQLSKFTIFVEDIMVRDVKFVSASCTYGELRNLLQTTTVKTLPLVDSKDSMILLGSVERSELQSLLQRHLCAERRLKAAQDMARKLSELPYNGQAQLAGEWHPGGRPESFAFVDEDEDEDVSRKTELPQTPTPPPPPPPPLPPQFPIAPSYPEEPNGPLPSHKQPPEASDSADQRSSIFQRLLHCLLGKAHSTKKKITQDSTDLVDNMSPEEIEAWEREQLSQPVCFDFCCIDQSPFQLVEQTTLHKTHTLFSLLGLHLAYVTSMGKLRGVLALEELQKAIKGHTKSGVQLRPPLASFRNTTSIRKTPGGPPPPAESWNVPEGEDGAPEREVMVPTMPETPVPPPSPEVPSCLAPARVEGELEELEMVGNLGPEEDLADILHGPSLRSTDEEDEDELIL
Nature of the test: Electrophysiological measurement of compound inhibition of CIC-1 in rat muscle (Gm, three micro-electrodes technique). The class given is cell-based. The following applies: Gm in fibres of whole rat soleus muscle, four increasing compound concentrations; read-out: Potency Range (EC50, inhibition of CIC-1 ion channel). On the procedure: Apparent CIC-1 affinity was reported by the concentration of compound at which 50% of the compound's full inhibition of CIC-1 was observed (EC50) (see also WO2019/115777).
Experimentally, Gm was measured in individual fibres of whole rat soleus muscles using a three micro-electrodes technique described in this example and in full detail elsewhere (Riisager et al., Determination of cable parameters in skeletal muscle fibres during repetitive firing of action potentials. Journal of Physiology, 2014, 592, 4417-4429). Briefly, intact rat soleus muscles were dissected out from 12-14 week old Wistar rats and placed in an experimental chamber that was perfused with a standard Krebs Ringer solution containing 122 mM NaCl, 25 mM NaHCO3, 2.8 mM KCl, 1.2 mM KH2PO4, 1.2 mM MgSO4, 1.3 mM CaCl2), 5.0 mM D-glucose. During experiments, the solution was kept at approx. 30° C. and continuously equilibrated with a mixture of 95% O2 and 5% CO2, pH ~7.4. The experimental chamber was placed in Nikon upright microscope that was used to visualize individual muscle fibres and the three electrodes (glass pipettes filled with 2 M potassium citrate). For Gm measurements, the electrodes were inserted into the same fibre with known inter-electrode distances of 0.35-0.5 mm (V1-V2, X1) and 1.1-1.5 mm (V1-V3, X3). The membrane potential of the impaled muscle fibre was recorded by all electrodes. Two of the electrodes were furthermore used to inject 50 ms current pulses of −30 nA. […] The steady state voltage deflection at each distance was divided by the magnitude of current injected (−30 nA) and the resulting transfer resistances were plotted against inter-electrode distance and the data was fitted to a mono-exponential function from which Gm could be calculated using linear cable theory.
To establish a dose response relationship, Gm was first determined in 10 muscle fibres in the absence of compound and then at four increasing compound concentrations with Gm determinations in 5-10 fibres at each concentration. The average Gm values at each concentration were plotted against compound concentration and the data was fitted to sigmoidal function to obtain an EC50 value.

In test [2] the test system is isolated rat soleus muscles. Nature of the test: Measurement of force in an in vitro model: recovery of contractile force of isolated rat soleus nerve-muscle preparation after tubocurarine. The following applies: 40 min, read-out: Point increase (%): percentage increase of initial force that was restored; for activation at 50 µM: 50 μM of test compound. As to the method: The current disclosure relates to compounds that inhibit CIC-1 ion channels and increase muscle excitability and thereby improve muscle function in clinical conditions where muscle activation is failing. Such conditions result in loss of contractile function of skeletal muscle, weakness and excessive fatigue. In this series of experiments the compounds were tested for their ability to restore contractile function of isolated rat muscle when the neuromuscular transmission had been compromised akin to neuromuscular disorders.
Experimentally, soleus muscles from 4-5 wk old rats were isolated with the motor nerve remaining attached. The nerve-muscle preparations were mounted in experimental setups that enabled electrical stimulation of the motor nerve. Stimulation of the motor nerve led to activation of the muscle fibres and ensuing force production that was recorded. The nerve-muscle preparations were also in these experiments incubated in the standard Krebs Ringer (see example 15) and the solution was heated to 30° C. and continuously equilibrated with a mixture of 95% O2 and 5% CO2, pH ~7.4.
After mounting the nerve-muscle preparation in the experimental setup, the contractile function of the muscle was initially assessed under the control conditions. Sub-maximal concentration of tubocurarine (115 nM), an acetylcholine receptor antagonist, was then added to the experimental bath to impose partial inhibition of the ability of the motor nerve to activate the muscle fibres. The experimental condition mimics the failing neuromuscular transmission in a range of neuromuscular disorders. After addition of tubocurarine the contractile force declined over the next 90 minutes to 10-50% of the control force. The test compound was then added to obtain the required compound concentration in the bath and the contractile force recovered was measured. To quantify the ability of the compound to restore force the percentage of the initial force that was restored was determined after 40 mins of compound exposure and the point increase is reported in Tables 3 to 7.

[3] abbreviates: tubocurarine 115 nM, after 40 mins of compound exposure.
The mark [4] stands for this setting: 10 μM of test compound, tubocurarine 115 nM, after 40 mins of compound exposure.
Where [5] appears, read: 25 μM of test compound, tubocurarine 115 nM, after 40 mins of compound exposure.

Read-outs that look alike come from different tables or passages of the source.

As a reminder, the EC50 is the concentration giving half of the maximal effect. On to `COc1c(Cl)cc2c(c1C(=O)O)OCCO2` [Compound A-1, 7-Chloro-6-methoxy-2,3-dihydro-1,4-benzodioxine-5-carboxylic acid], for which the EC50 in test [1] was in the range of 5 to 15 µM. Further, in test [2] (setting [3]), the activation at 50 µM came to 31%.
Regarding `COc1c(Cl)cc2c(c1C(=O)O)OCCN2C` [Compound A-2, 6-Chloro-7-methoxy-4-methyl-3,4-dihydro-2H-1,4-benzoxazine-8-carboxylic acid], the concentration giving a half-maximal response (EC50) in test [1] was 0.2 to 1 µM. The activation at 10 µM in test [2] (setting [4]) was found to be 32%.
Turning to `CN1CCOc2cc(Cl)c(F)c(C(=O)O)c21` [Compound A-3, 7-Chloro-6-fluoro-4-methyl-3,4-dihydro-2H-1,4-benzoxazine-5-carboxylic acid], the EC50 in test [1] was 1 to 5 µM. For the same compound, the activation at 10 µM in test [2] stood at 41%.
In the case of `CN1CCOc2c1cc(F)c(Cl)c2C(=O)O` [Compound A-4, 7-Chloro-6-fluoro-4-methyl-3,4-dihydro-2H-1,4-benzoxazine-8-carboxylic acid], the EC50 in test [1] lay within 1 to 5 µM. In addition, the activation at 10 µM in test [2] (setting [4]) was 36%.
Take `O=C(O)c1c(F)cc(Cl)c2c1OCCN2` [Compound A-5, 5-Chloro-7-fluoro-3,4-dihydro-2H-1,4-benzoxazine-8-carboxylic acid]: in test [1], the concentration giving a half-maximal response (EC50) fell in the range of 5 to 15 µM. In addition, the activation at 50 µM in test [2] (setting [3]) worked out at 44%.
Regarding `O=C(O)c1c(F)c(Cl)cc2c1OCCN2` [Compound A-6, 6-Chloro-7-fluoro-3,4-dihydro-2H-1,4-benzoxazine-8-carboxylic acid], the EC50 in test [1] lay in the range of 5 to 15 µM. The activation at 10 µM in test [2] (setting [4]) was 19%.
In the case of `CN1CCOc2c1cc(Cl)c(F)c2C(=O)O` [Compound A-7, 6-Chloro-7-fluoro-4-methyl-3,4-dihydro-2H-1,4-benzoxazine-8-carboxylic acid], in test [1], the EC50 was in the range of 0.2 to 1 µM.
On to `CN1CCN(C)c2c1cc(Cl)c(F)c2C(=O)O` [Compound A-8, 7-Chloro-6-fluoro-1,4-dimethyl-1,2,3,4-tetrahydroquinoxaline-5-carboxylic acid], for which the EC50 in test [1] lay within 1 to 5 µM. Besides, the activation at 10 µM in test [2] (setting [4]) came to 26%.
In the case of `CN1CC(C)(C)Oc2c1cc(Cl)c(F)c2C(=O)O` [Compound A-9, 6-Chloro-7-fluoro-2,2,4-trimethyl-3,4-dihydro-2H-1,4-benzoxazine-8-carboxylic acid], the half-maximal effective concentration (EC50) in test [1] was 1 to 5 µM. For the same compound, in test [2] (setting [4]), the activation at 10 µM came to 37%.
As for `CN1CCCOc2c1cc(Cl)c(F)c2C(=O)O` [Compound A-13, 7-Chloro-8-fluoro-5-methyl-2,3,4,5-tetrahydro-1,5-benzoxazepine-9-carboxylic acid], the EC50 in test [1] was 1 to 5 µM. Also, the activation at 10 µM in test [2] (setting [4]) was determined as 30%.
For the compound `CC(C)CCN1CCOc2c1cc(Cl)c(F)c2C(=O)O` [Compound A-17, 6-chloro-7-fluoro-4-(3-methylbutyl)-3,4-dihydro-2H-1,4-benzoxazine-8-carboxylic acid], the EC50 in test [1] is 5 to 15 µM. Also, in test [2] (setting [3]), the activation at 50 µM was found to be 29%.
`CCN1CCOc2c1cc(Cl)c(F)c2C(=O)O` [Compound A-18, 6-Chloro-4-ethyl-7-fluoro-3,4-dihydro-2H-1,4-benzoxazine-8-carboxylic acid]: the 50% effective concentration (EC50) in test [1] was 1 to 5 µM. Moreover, the activation at 10 µM in test [2] (setting [4]) came out at 34%.
Regarding `CN1CCSc2c1cc(Cl)c(F)c2C(=O)O` [Compound A-19, 6-chloro-7-fluoro-4-methyl-3,4-dihydro-2H-1,4-benzothiazine-8-carboxylic acid], in test [1], the 50% effective concentration (EC50) is 1 to 5 µM. For the same compound, the activation at 10 µM in test [2] (setting [4]) was found to be 28%.
For `CCCN1CCOc2c1cc(Cl)c(F)c2C(=O)O` [Compound A-21, 6-Chloro-7-fluoro-4-propyl-3,4-dihydro-2H-1,4-benzoxazine-8-carboxylic acid], the EC50 in test [1] is 1 to 5 µM. The activation at 25 µM in test [2] (setting [5]) worked out at 29%.
In the case of `CCN1CCOc2c1cc(Cl)c(OC)c2C(=O)O` [Compound A-28, 6-Chloro-4-ethyl-7-methoxy-3,4-dihydro-2H-1,4-benzoxazine-8-carboxylic acid], the EC50 in test [1] is 0.2 to 1 µM. In addition, in test [2], the activation at 25 µM came out at 36%.
Consider `COc1c(Cl)cc2c(c1C(=O)O)SCCN2C` [Compound A-29, 6-Chloro-7-methoxy-4-methyl-3,4-dihydro-2H-1,4-benzothiazine-8-carboxylic acid], for which, in test [1], the EC50 fell in the range of 0.2 to 1 µM. Also, in test [2] (setting [4]), the activation at 10 µM was 43%.
Regarding `COc1c(F)cc2c(c1C(=O)O)OCCN2C` [Compound A-30, 6-Fluoro-7-methoxy-4-methyl-3,4-dihydro-2H-1,4-benzoxazine-8-carboxylic acid], the half-maximal effective concentration (EC50) in test [1] is 0.2 to 1 µM. Also, the activation at 10 µM in test [2] turned out to be 39%.
For the compound `COc1c(Cl)cc2c(c1C(=O)O)OCCN2Cc1ccsc1` [Compound A-36, 6-Chloro-7-methoxy-4-[(thiophen-3-yl)methyl]-3,4-dihydro-2H-1,4-benzoxazine-8-carboxylic acid], in test [1], the EC50 was in the range of 1 to 5 µM. Besides, in test [2] (setting [5]), the activation at 25 µM came out at 36%.
Regarding `O=C(O)c1c(F)c(Cl)cc2c1N(Cc1ccsc1)CCO2` [Compound A-54, 7-Chloro-6-fluoro-4-[(thiophen-3-yl)methyl]-3,4-dihydro-2H-1,4-benzoxazine-5-carboxylic acid], the EC50 in test [1] lay within 0.2 to 1 µM. In test [2] (setting [4]), the activation at 10 µM was found to be 28%.
The matching figures for `COc1ccc(CN2CCOc3cc(Cl)c(F)c(C(=O)O)c32)cc1` [Compound A-58, 7-Chloro-6-fluoro-4-[(p-methoxyphenyl)methyl]-3,4-dihydro-2H-1,4-benzoxazine-5-carboxylic acid]: 0.2 to 1 µM and 35%.
The matching figures for `Cc1ccc(CN2CCOc3cc(Cl)c(F)c(C(=O)O)c32)cc1` [Compound A-60, 7-Chloro-6-fluoro-4-[(p-tolyl)methyl]-3,4-dihydro-2H-1,4-benzoxazine-5-carboxylic acid]: 0.2 to 1 µM and 17%.

Source of the values: patent publication US20260199369A1, “COMPOUNDS FOR THE TREATMENT OF NEUROMUSCULAR DISORDERS” (NMD PHARMA A/S, priority 2022, published 2026).
